Laboratory results reported in article PMC7037732, “Synthesis of Combretastatin A-4 and 3′-Aminocombretastatin A-4 derivatives with Aminoacid Containing Pendants and Study of their Interaction with Tubulin and as Downregulators of the VEGF, hTERT and c-Myc Gene Expression” (Molecules, 2020).

Assays:
[1] = tested on: HT-29 (human colon adenocarcinoma); assay: Inhibition of cell proliferation (MTT), HT-29; format: cell-based; details: Homo sapiens, 48 h of treatment (footnote), average ±SD of three experiments
[2] = tested on: MCF-7 (breast adenocarcinoma); assay: Inhibition of cell proliferation (MTT), MCF-7; format: cell-based, human; details: Homo sapiens, 48 h of treatment (footnote), average ±SD of three experiments
[3] = tested on: A-549 (human pulmonary adenocarcinoma); assay: Inhibition of cell proliferation (MTT), A-549; format: cell-based; details: 48 h of treatment (footnote), average ±SD of three experiments
Summary of the method: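 Antiproliferative activity against A-549 human pulmonary adenocarcinoma cells was measured by MTT assay. Cells were seeded at 25,000/mL in 96-well plates, cultured 24 h, then exposed to compounds at various concentrations. MTT (20 µL, 5 mg·mL^−1) was added for 2 h at 37 °C, formazan dissolved in 200 µL DMSO, and absorbance read at 540 nm. IC50 values came graphically from three independent experiments.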

[4] = tested on: HEK-293 (human embryonic kidney cells); assay: Inhibition of cell proliferation (MTT), nontumor HEK-293; format: cell-based; details: Homo sapiens, 48 h of treatment (footnote), average ±SD of three experiments
[5] = tested on: A-549 cells; assay: Cell cycle distribution by flow cytometry; format: cell-based, human; details: A-549, 24 h; for cells accumulated in the G2/M phase: concentration per compound as in Tables 6 and 7, control 14%
Summary of the method: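 A-549 cells were harvested, fixed in cold 70% ethanol (30 min, −20 °C), then stained with 50 µg/mL propidium iodide plus 100 µg/mL RNase A in PBS for 20 min at room temperature in the dark. Flow cytometry used 488 nm excitation and 620 nm emission, giving the percentage of cells in G2/M.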

[6] = tested on: A-549 cells; assay: Effect on the cellular microtubule network (immunofluorescence); format: cell-based, human
Experimental: The effect on the cellular microtubule network of CA-4 derivatives was studied for compounds 1, 3.7 (L-Thr-OMe), 3.8 (L-Tyr-OMe), 4.2 (L-Val) and 4.3 (L-Leu), which were those accumulating more cells in the G2/M phase. Thus, A-549 cells were incubated for 24 h in the presence of the above compounds and CA-4 at the concentrations indicated in Figure 4.
The effect of some derivatives on the cellular microtubule network were also studied on A-549 cells. The selected compounds were 7.1 (Fmoc-Gly) (0.5 μM), 8.1 (Gly) (2 μM), 8.2 (L-Ala) (3 μM) and 10.1 (D-Val) (40 μM), which were those exerting a higher effect on the cell cycle.
For immunofluorescence microscopy of the microtubule network, 10^6 cells were plated on cover glass and incubated with the different drugs. Cells were then fixed in 3.7% formaldehyde (in PBS pH 7.4) for 20 min at room temperature and permeabilized with PBS-Triton X-100 0.5% for 10 min at room temperature. Direct immunostaining was carried out for 2 h at room temperature with a primary FITC-conjugated anti-α-tubulin antibody (dilution 1:400 in PBS-BSA 1% from a 1 mg/mL solution; monoclonal antibody, clone DM1A; Sigma-Aldrich, Darmstadt, Germany.). Next, cells were incubated for 45 min at room temperature in darkness with secondary Alexa Fluor 488-conjugated antibodies (dilution 1:200 each from 1.5 mg/mL; Molecular Probe, France). Then, cells were washed in PBS and cover glasses were mounted with a drop of ProLong® antifade solution (Invitrogen). The cytoskeleton was imaged by a confocal laser scanning microscope (CLSM) Leica SP5 with a Leica inverted microscope, equipped with a Plan-Apochromat 63× oil immersion objective (NA = 1.4). Each image was recorded with the CLSM’s spectral mode selecting specific domains of the emission spectrum. The FITC fluorophore was excited at 488 nm with an argon laser, and its fluorescence emission was collected between 496 nm and 535 nm.

[7] = tested on: purified tubulin; assay: Critical concentration (CrC) for the assembly of purified tubulin in GAB; format: biochemical; details: compound 27.5 μM, tubulin 25 μM, glycerol (GAB) and GTP assembly buffer; control 7.9 ± 1.2
Experimental: The effect on the self-assembly of tubulin was determined by measuring the critical concentration (CrC).

[8] = tested on: tubulin; assay: In vitro tubulin polymerization by turbidimetry (It50); format: biochemical; details: turbidimetry at 350 nm, 37 °C; control 16.6 ± 1.0
Experimental: Figure 3 also includes polymerization curves in the presence of CA-4, AmCA-4 and paclitaxel. This test was also performed using paclitaxel, a microtubule stabilizing agent, as a control for the complete formation of microtubules (see Figure 3).

[9] = tested on: VEGF gene; assay: VEGF gene expression by RT-qPCR in HT-29 cells; format: cell-based, human; details: Homo sapiens, HT-29, 48 h, 7 nM, control 100
Experimental: (§1) The effect on the expression of VEGF, hTERT and c-Myc genes has been studied for CA-4 and its derivatives that show selectivity indexes higher than 0.9 on the HT-29 cell line. The studied derivatives, together with the concentrations to which they have been tested, are CA-4 (15 μM); 4.1 (Gly, 5 μM); 4.5 (L-Pro, 25 μM); 4.9 (L-Met, 25 μM); 6.2 (D-Leu, 25 μM); 6.3 (D-Phe, 25 μM); 6.4 (D-Pro, 25 μM) and 6.5 (D-Ser, 10 μM). The expression of the genes was determined by RT-qPCR methodology, as described in the Materials and Methods section.
(§2) As regards AmCA-4 derivatives, the effect on the expression of the VEGF, hTERT and c-Myc genes has been studied on those that show IC50 in the low nanomolar range on the HT-29 cell line and/or on compounds whose selectivity indexes with respect to this cell line are higher than 1. The studied compounds, together with the concentrations to which they have been tested, are: CA-4 (15 μM), AmCA-4 (15 nM), 7.1 (7 nM), 7.2 (1.5 nM), 7.3 (4 nM), 7.4 (15 nM), 7.5 (2 nM), 7.7 (7 nM), 7.8 (15 nM), 7.9 (30 nM), 8.1 (7 nM), 8.2 (3 nM), 8.3 (10 nM), 8.4 (1.5 nM), 8.5 (4 nM), 8.7 (7 nM), 8.8 (3 nM) and 8.9 (4 nM).
(§3) HT-29 cells at 70–80% confluence were collected, and 1.5 × 10^5 cells were placed in a six-well plate in 1.5 mL of the medium. After 24 h, cells were incubated with the corresponding compounds for 48 h. Cells were collected, and the total cellular RNA from the HT-29 cells was isolated using an Ambion RNA Extraction Kit, according to the manufacturer’s instructions. The cDNA was synthesized by MMLV-RT with […] of extracted RNA and oligo(dT)15, according to the manufacturer’s instructions. Genes were amplified by a thermal cycler and StepOnePlus™ TaqMan® probes. TaqMan® Gene Expression Master Mix Fast, containing the appropriate buffer for the amplification conditions, dNTPs, thermostable DNA polymerase enzyme and a passive reference probe, was used. To amplify each of the genes, the predesigned primers sold by Life Technologies TaqMan® Gene Expression Assays Hs99999903-m1 (β-actin), Hs00900055-m1 (VEGF), Hs00972646-m1 (hTERT) and Hs00153408-m1 (c-Myc) were used.

[10] = tested on: hTERT gene; assay: hTERT gene expression by RT-qPCR in HT-29 cells; format: cell-based, human; details: Homo sapiens, HT-29, 48 h, 7 nM, control 100
Experimental: as §1, §2, §3

[11] = tested on: c-Myc gene; assay: c-Myc gene expression by RT-qPCR in HT-29 cells; format: cell-based, human; details: Homo sapiens, HT-29, 48 h, 7 nM, control 100
Experimental: as §1, §2, §3

[12] = Homo sapiens, A549, 48 h, Table 1
[13] = Homo sapiens, A549, 48 h, Table 2

SMILES	IC50 ([1]; HT-29, 48 h, Table 1)	IC50 ([2]; MCF7, 48 h, Table 1)	IC50 [3, 12]	IC50 ([4]; HEK293, 48 h, Table 1)	G0/G1 ([5]; 75 μM)	G2/M ([5]; 75 μM)	S ([5]; 75 μM)	cells accumulated in the G2/M phase [5]	CrC (critical concentration) [7]	Effect on the microtubule network ([6]; A-549, 24 h, 50 μM)	other results
COC(=O)[C@H](Cc1ccc(O)cc1)NC(=O)COc1cc(/C=C\c2cc(OC)c(OC)c(OC)c2)ccc1OC [Compound 3.8]	16 ± 5 µM	12 ± 4 µM	18 ± 1 µM	10 ± 2 µM	17 ± 2%	65 ± 1%	18 ± 1%	50–70%	–	–	Effect on the microtubule network ([6]; A-549, 24 h, 75 μM): produce disorganization in the mitotic spindle
COc1ccc(/C=C\c2cc(OC)c(OC)c(OC)c2)cc1NC(=O)[C@H](N)C(C)C [Compound 10.1]	–	–	–	–	–	–	–	–	12.8 ± 0.3 µM	–	IC50 ([1]; HT-29, 48 h, Table 2): 4.8 ± 0.6 µM; IC50 ([2]; MCF7, 48 h, Table 2): 4.7 ± 0.7 µM; IC50 [3, 13]: 9.9 ± 1.3 µM; IC50 ([4]; HEK293, 48 h, Table 2): 2.4 ± 0.3 µM; It50 (time required to reach 50% of the polymerization) [8]: 17.1 ± 1.3 min; G0/G1 ([5]; 40 µM): 26 ± 2%; G2/M ([5]; 40 µM): 60 ± 1%; S ([5]; 40 µM): 14 ± 1%; Effect on the microtubule network ([6]; A-549, 0.5 μM): much less active; Effect on the microtubule network ([6]; A-549, 40 μM): almost total depolymerization of the microtubule network
COc1ccc(/C=C\c2cc(OC)c(OC)c(OC)c2)cc1OCC(=O)N[C@@H](CC(C)C)C(=O)O [Compound 4.3]	15 ± 5 µM	16 ± 6 µM	14 ± 2 µM	9 ± 2 µM	22 ± 6%	63 ± 5%	15 ± 2%	50–70%	8 ± 3 µM	produce disorganization in the mitotic spindle	–
CCOC(=O)COc1cc(/C=C\c2cc(OC)c(OC)c(OC)c2)ccc1OC [Compound 1, Ethyl (Z)-2-(2-methoxy-5-(3,4,5-trimethoxystyryl)phenoxy)acetate]	7 ± 4 µM	8 ± 4 µM	< 10 µM	3.6 ± 0.5 µM	–	–	–	50–70%	–	produce disorganization in the mitotic spindle	IC50 ([3]; Table 1): 9 ± 1 µM; G0/G1 ([5]; 50 μM): 23 ± 5%; G2/M ([5]; 50 μM): 55 ± 8%; S ([5]; 50 μM): 22 ± 4%
COC(=O)[C@@H](NC(=O)COc1cc(/C=C\c2cc(OC)c(OC)c(OC)c2)ccc1OC)C(C)O (some centres unmarked) [Compound 3.7]	18 ± 7 µM	12 ± 4 µM	19 ± 1 µM	14 ± 2 µM	25 ± 5%	57 ± 6%	18 ± 1%	50–70%	10 ± 3 µM	–	Effect on the microtubule network ([6]; A-549, 24 h, 75 μM): produce disorganization in the mitotic spindle
COc1ccc(/C=C\c2cc(OC)c(OC)c(OC)c2)cc1NC(=O)[C@@H](NC(=O)OCC1c2ccccc2-c2ccccc21)C(C)O (some centres unmarked) [Compound 7.7]	–	–	–	–	–	–	–	–	12.0 ± 0.3 µM	–	IC50 ([1]; HT-29, 48 h, Table 2): 0.009 ± 0.003 µM; IC50 ([2]; MCF7, 48 h, Table 2): 0.025 ± 0.012 µM; IC50 [3, 13]: 0.422 ± 0.008 µM; IC50 ([4]; HEK293, 48 h, Table 2): 0.013 ± 0.002 µM; It50 (time required to reach 50% of the polymerization) [8]: 19.2 ± 0.3 min; mrna remaining at 0.007 µM [9]: 37%; mrna remaining at 0.007 µM [10]: < 70%; mrna remaining at 0.007 µM [11]: 56%
COc1ccc(/C=C\c2cc(OC)c(OC)c(OC)c2)cc1OCC(=O)O [Compound 2, (Z)-2-(2-Methoxy-5-(3,4,5-trimethoxystyryl)phenoxy)acetic acid]	–	–	38 ± 5 µM	–	–	–	–	–	12.0 ± 0.7 µM	–	IC50 ([1]; HT-29, Table 1): 33 ± 6 µM; IC50 ([2]; MCF7, Table 1): 11 ± 5 µM; IC50 ([4]; HEK293, Table 1): 12 ± 5 µM; melting point: 109 to 111 °C
COc1ccc(/C=C\c2cc(OC)c(OC)c(OC)c2)cc1OCC(=O)N[C@@H](Cc1ccccc1)C(=O)O [Compound 4.4]	–	–	100 ± 20 µM	–	–	–	–	–	11.4 ± 0.7 µM	produce disorganization in the mitotic spindle	IC50 ([1]; HT-29, Table 1): 54 ± 9 µM; IC50 ([2]; MCF7, Table 1): 45 ± 4 µM; IC50 ([4]; HEK293, Table 1): 47 ± 3 µM
